Experimental data from ChEMBL document CHEMBL1201862, “PubChem BioAssay data set” (2004).
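Following 48 hours of exposure in 96-well plates, responses at five concentrations were used to interpolate endpoints linearly. Abbreviation: GI50, concentration required for 50% inhibition of growth.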 Active and inactive are the calls of the source. Rule as the data show it: active = GI50 up to about 1.1 µM and inactive = higher.

What was measured:
Assay in all cases: NCI-60 cell line screen, 48 h
NCI-H460 = test system: NCI-H460
HCC 2998 = test system: HCC 2998
TK-10 = test system: TK-10
NCI-H522 = test system: NCI-H522
HT-29 = test system: HT-29
SF-268 = test system: SF-268
SN12C = test system: SN12C
RXF 393 = test system: RXF 393
Malme-3M = test system: Malme-3M
SNB-19 = test system: SNB-19
HCT-15 = test system: HCT-15
CCRF-CEM = test system: CCRF-CEM
786-0 = test system: 786-0
NCI-H226 = test system: NCI-H226
SR = test system: SR

| Compound | GI50 (NCI-H460) | GI50 (HCC 2998) | GI50 (TK-10) | GI50 (NCI-H522) | GI50 (HT-29) | GI50 (SF-268) | GI50 (SN12C) | GI50 (RXF 393) | GI50 (Malme-3M) | GI50 (SNB-19) | GI50 (HCT-15) | GI50 (CCRF-CEM) | GI50 (786-0) | GI50 (NCI-H226) | GI50 (SR) |
| --- | --- | --- | --- | --- | --- | --- | --- | --- | --- | --- | --- | --- | --- | --- | --- |
| O=C(c1nc2ccccc2nc1O)C(O)c1ccco1 (stereo unspecified) | > 100 µM (inactive) | > 100 µM (inactive) | > 100 µM (inactive) | 25.9 µM (inactive) | > 100 µM (inactive) | > 100 µM (inactive) | > 100 µM (inactive) | > 100 µM (inactive) | > 100 µM (inactive) | > 100 µM (inactive) | 51.8 µM | > 100 µM (inactive) | > 100 µM (inactive) | > 100 µM (inactive) | – |
| Cc1ccc(C2(C)NC(=S)N(NC(N)=S)C2=S)cc1 (stereo unspecified) | > 100 µM (inactive) | > 100 µM (inactive) | > 100 µM (inactive) | – | – | > 100 µM (inactive) | > 100 µM (inactive) | 80.2 µM (inactive) | > 100 µM (inactive) | > 100 µM (inactive) | > 100 µM | 24.6 µM (inactive) | 81.1 µM (inactive) | > 100 µM (inactive) | 51.6 µM (inactive) |
| Cc1ccc(SSCCCS(=O)O)cc1 | 63.1 µM (inactive) | 60 µM (inactive) | 39.5 µM (inactive) | 18.1 µM (inactive) | 41.6 µM (inactive) | 12.2 µM (inactive) | 21.6 µM (inactive) | 18.8 µM (inactive) | > 100 µM (inactive) | 49.7 µM (inactive) | 29.2 µM | – | 40.4 µM (inactive) | – | – |
| CCC12CCCN(Cc3ccccc3)C1c1c(n(C)c3ccccc13)[C@H](C(=O)OC)C2 (stereo partly specified) | > 239 µM (inactive) | > 239 µM (inactive) | > 239 µM (inactive) | 122 µM (inactive) | 32 µM (inactive) | > 239 µM (inactive) | 224 µM (inactive) | > 239 µM (inactive) | > 239 µM (inactive) | > 239 µM (inactive) | 85.7 µM | > 239 µM (inactive) | > 239 µM (inactive) | > 239 µM (inactive) | > 239 µM (inactive) |
| O=C1NC2(O)c3ccccc3C(=O)C2(O)N1c1ccccc1 (stereo unspecified) | > 100 µM (inactive) | > 100 µM (inactive) | > 100 µM (inactive) | > 100 µM (inactive) | > 100 µM (inactive) | > 100 µM (inactive) | – | – | > 100 µM (inactive) | > 100 µM (inactive) | > 100 µM | > 100 µM (inactive) | > 100 µM (inactive) | – | > 100 µM (inactive) |
| Cc1ccc(NC(=O)CCC(=O)C2Cc3ccccc3C2=O)cc1C (stereo unspecified) | > 100 µM (inactive) | > 100 µM (inactive) | > 100 µM (inactive) | > 100 µM (inactive) | > 100 µM (inactive) | > 100 µM (inactive) | > 100 µM (inactive) | > 100 µM (inactive) | > 100 µM (inactive) | > 100 µM (inactive) | > 100 µM | > 100 µM (inactive) | > 100 µM (inactive) | > 100 µM (inactive) | > 100 µM (inactive) |
| COc1ccc2c3c([nH]c2c1CC=C(C)C)C(=O)C=C(C)C3=O | > 25 µM (inactive) | > 25 µM (inactive) | > 25 µM (inactive) | 11.8 µM (inactive) | > 25 µM (inactive) | 12.3 µM (inactive) | > 25 µM (inactive) | > 25 µM (inactive) | 16.1 µM (inactive) | > 25 µM (inactive) | > 25 µM | 8.36 µM (inactive) | > 25 µM (inactive) | > 25 µM (inactive) | 24.5 µM (inactive) |
| CC1=CCP(C(F)(F)F)P(C(F)(F)F)C1 (stereo unspecified) | > 100 µM (inactive) | > 100 µM (inactive) | > 100 µM (inactive) | > 100 µM (inactive) | > 100 µM (inactive) | > 100 µM (inactive) | > 100 µM (inactive) | 5.55 µM (inactive) | > 100 µM (inactive) | > 100 µM (inactive) | > 100 µM | > 100 µM (inactive) | > 100 µM (inactive) | > 100 µM (inactive) | > 100 µM (inactive) |
| CC(=O)/C(=N\O)C(=O)NCCc1ccccc1 | 41.6 µM (inactive) | 66.5 µM (inactive) | 45.1 µM (inactive) | > 100 µM (inactive) | 83.2 µM (inactive) | > 100 µM (inactive) | > 100 µM (inactive) | 64.7 µM (inactive) | > 100 µM (inactive) | > 100 µM (inactive) | 41.1 µM | 76.4 µM (inactive) | 68.2 µM (inactive) | > 100 µM (inactive) | > 100 µM (inactive) |
| N#CCCN(c1ccc(-c2nnc(NC(=O)CNNC(=O)CC(=O)Nc3ccccc3)s2)cc1)S(=O)(=O)c1ccccc1 | > 100 µM (inactive) | > 100 µM (inactive) | > 100 µM (inactive) | 42.1 µM (inactive) | > 100 µM (inactive) | > 100 µM (inactive) | > 100 µM (inactive) | – | > 100 µM (inactive) | > 100 µM (inactive) | > 100 µM | 90.8 µM (inactive) | > 100 µM (inactive) | 59.3 µM (inactive) | – |
| COc1ccc(CN2C(=O)C(Cc3cc(OC)c(OC)c(C)c3OC)N(C(=O)OC(C)C)C(=O)/C2=C/c2cc(OC)c(OC)c(C)c2OC)cc1 (stereo unspecified) | 18.4 µM (inactive) | > 100 µM (inactive) | > 100 µM (inactive) | 4.4 µM (inactive) | > 100 µM (inactive) | > 100 µM (inactive) | > 100 µM (inactive) | 6.9 µM (inactive) | 64.9 µM (inactive) | > 100 µM (inactive) | – | 59.6 µM (inactive) | > 100 µM (inactive) | 14.8 µM (inactive) | 15.2 µM (inactive) |
| O=C1CCC2(CCC(=O)NC2=O)C(=O)N1 | > 100 µM (inactive) | > 100 µM (inactive) | > 100 µM (inactive) | > 100 µM (inactive) | > 100 µM (inactive) | > 100 µM (inactive) | > 100 µM (inactive) | > 100 µM (inactive) | > 100 µM (inactive) | > 100 µM (inactive) | > 100 µM | > 100 µM (inactive) | > 100 µM (inactive) | > 100 µM (inactive) | > 100 µM (inactive) |
| O=C(NO)C(=O)Nc1cc(Cl)ccc1Cl | > 100 µM (inactive) | 78 µM (inactive) | > 100 µM (inactive) | 23.9 µM (inactive) | > 100 µM (inactive) | > 100 µM (inactive) | > 100 µM (inactive) | > 100 µM (inactive) | > 100 µM (inactive) | > 100 µM (inactive) | > 100 µM | 51.1 µM (inactive) | > 100 µM (inactive) | > 100 µM (inactive) | 93.5 µM (inactive) |
| CCOC(=O)CCCO | > 100 µM (inactive) | > 100 µM (inactive) | > 100 µM (inactive) | > 100 µM (inactive) | > 100 µM (inactive) | > 100 µM (inactive) | > 100 µM (inactive) | > 100 µM (inactive) | > 100 µM (inactive) | > 100 µM (inactive) | > 100 µM | > 100 µM (inactive) | > 100 µM (inactive) | – | > 100 µM (inactive) |
| Cn1cnc([N+](=O)[O-])c1Sc1nnc(-c2ccc(Cl)cc2)n1C | 20.7 µM (inactive) | 17.9 µM (inactive) | 17.7 µM (inactive) | 3.17 µM (inactive) | 15 µM (inactive) | 20.3 µM (inactive) | 14.7 µM (inactive) | 3.15 µM (inactive) | 10.6 µM (inactive) | 98.2 µM (inactive) | – | 3.69 µM (inactive) | > 10 µM (inactive) | 21.2 µM (inactive) | 7.41 µM (inactive) |
| CCOP(=O)(C/C(=N/NC(C)(C)C)C(=O)Nc1nc2ccc(C)cc2s1)OCC | > 100 µM (inactive) | > 100 µM (inactive) | > 100 µM (inactive) | > 100 µM (inactive) | > 100 µM (inactive) | > 100 µM (inactive) | > 100 µM (inactive) | > 100 µM (inactive) | > 100 µM (inactive) | > 100 µM (inactive) | > 100 µM | > 100 µM (inactive) | > 100 µM (inactive) | > 100 µM (inactive) | > 100 µM (inactive) |
| COc1cc([C@@H]2c3cc4c(cc3[C@@H](OC(=O)c3ccc(N)cc3)C3COC(=O)[C@@H]32)OCO4)cc(OC)c1O (stereo partly specified) | 3.73 µM (inactive) | 12.2 µM (inactive) | 17.6 µM (inactive) | 2.07 µM (inactive) | 3.21 µM (inactive) | 9.59 µM (inactive) | 4.21 µM (inactive) | 2.92 µM (inactive) | 12.3 µM (inactive) | 20.7 µM (inactive) | 12.8 µM | 6.18 µM (inactive) | 7.08 µM (inactive) | 6.97 µM (inactive) | – |
| COc1ccc(COC2CC(OC)OC(C)C2OC(=O)c2ccccc2)cc1 (stereo unspecified) | 36.7 µM (inactive) | 43.1 µM (inactive) | 63.7 µM (inactive) | 30.6 µM (inactive) | 16.6 µM (inactive) | 39.8 µM (inactive) | 57.4 µM (inactive) | 19.1 µM (inactive) | 29 µM (inactive) | > 64.9 µM (inactive) | 17.8 µM | 30.3 µM (inactive) | 74.1 µM (inactive) | 21.7 µM (inactive) | 19 µM (inactive) |
| C/C(CC(=O)Nc1ccc([N+](=O)[O-])cc1)=N/N=C(N)N | > 100 µM (inactive) | > 100 µM (inactive) | > 100 µM (inactive) | > 100 µM (inactive) | > 100 µM (inactive) | > 100 µM (inactive) | – | > 100 µM (inactive) | > 100 µM (inactive) | – | – | > 100 µM (inactive) | > 100 µM (inactive) | > 100 µM (inactive) | – |
| CCN1C(=O)C(N=[N+]=[N-])(c2ccccc2)C(=O)c2ccccc21 (stereo unspecified) | 94.8 µM (inactive) | > 100 µM (inactive) | > 100 µM (inactive) | > 100 µM (inactive) | > 100 µM (inactive) | 83.2 µM (inactive) | > 100 µM (inactive) | 99.1 µM (inactive) | 67 µM (inactive) | > 100 µM (inactive) | 59.2 µM | 55.1 µM (inactive) | > 100 µM (inactive) | 46.7 µM (inactive) | 36.3 µM (inactive) |
